This is an account of results in US6703413B2 (Rhode Island Hospital, priority 1999, dated 2004).

As a reminder, the IC50 is the concentration at which inhibition is half-maximal. The low end stands for greater potency in that assay, the high end for weaker potency in that assay.

One data set relates to NIH-3T3 cells. Description: Phosphotidylserine externalization, Annexin-V FITC binding. It is filed as cell-based, murine. The settings on record: NIH-3T3, 24 h exposure, non-significant. On the procedure:
Three×10^5 cells were seeded in plastic tissue culture flasks. […] Control cultures received an appropriate volume of Kollidine-17P. After an additional 24 h, cells were harvested and phosphotidylserine externalization determined by assessing Annexin-V FITC binding using cytofluorometric techniques. Each bar represents the mean±SE of four determinations. ** p≦0.01, *** p0.001
Cell membrane phosphotidylserine externalization, as a reflection of the potential induction of apoptosis, was assessed by flow cytometry methods using the ApoAlert® Annexin-V/FITC assay kit. Briefly, 1×10^6 cells were incubated for 24 h in tissue culture medium containing serum. […] Control cultures received 5% Kollidon 17 PF alone. Twenty-four hours later, all cells were harvested by trypsinization. The harvested cells were resuspended in 200 μl of binding buffer and then incubated for 5-15 min in a solution containing 1 μg/ml Annexin-V FITC at room temperature in the dark. The cells were then analyzed to quantitate Annexin-V binding by cytofluorometric techniques that utilized FACScan using the ModFit LT program with statistical analysis as described above.

The next data set concerns H-596 lung tumor cells. Description: Cell growth inhibition, 3 d exposure, cell counting. Format: cell-based, human. On the procedure: (§1) One ml of this cell suspension was added to each well of a 12 well cell culture plate that contained 3 ml of appropriate media plus serum. […] Control wells received 40 μl of 5% Kollidon 17 PF alone. Seventy-two hours later, all cells were harvested by trypsinization and cell number determined electronically using a Coulter Model Z1 particle counter (Coulter Corp., Miami, Fla.) to assess cell growth inhibition. Each experiment was performed in duplicate and repeated a minimum of three times.
(§2) Cells were seeded at a density of 1-5×10^4 cells in each well of a 6 well tissue culture flask. […] After three days, cells were harvested by trypsinization and cell number determined electronically. Cell growth inhibition was determined by comparison to non-Taurolidine exposed control cultures. The IC50 was calculated as the concentration required to inhibit cell number by 50%.

Another data set relates to HCT-8 colon tumor cells. The data set is described as above. Format: cell-based, human. Here is the method: as §1, §2
For a further data set, the system named is HCT-15 colon tumor cells. The description is as above. Format: cell-based, human. On the procedure:
as §1, §2

Data set [1] concerns DU-145 prostate tumor cells. The data set is described as above. It is filed as cell-based, human. On the procedure:
as §1, §2

The test system of a further data set is 3T3 cells. The data set can be described thus: DNA fragmentation, agarose-gel electrophoresis. Format: cell-based. The settings on record: identical regimen, 50 μM.
The next data set has as its system H-157 lung tumor cells. Description: Cell growth inhibition, 3 d exposure, cell counting. Format: cell-based. The following applies: Homo sapiens, NCI-H157, 72 h. Here is the method:
as §1, §2

In data set [2] the test system is PA-1 human ovarian tumor cells. The data set is described as above. Format: cell-based. The settings on record: PA-1 (ovary). Here is the method:
as §1, §2

The next data set deals with MNT-1 melanoma cells. The description is as above. The following applies: Homo sapiens, 72 h. Format: cell-based. Here is the method:
as §1, §2

The subject of the next data set is ovarian tumor cells. Description: DNA fragmentation, agarose-gel electrophoresis. Format: cell-based, human. The following applies: 50 μM.
The subject of data set [3] is activated human T-cell cultures. Description: Cytotoxic and apoptotic activity in normal primary cells. It is filed as cell-based. The text has this: (§3) This observation was confirmed using normal (non-tumor) primary cells derived from animals, which are known to be free of tumors.
In data set [4] the test system is normal murine bone marrow cultures. Described as above. Format: cell-based.
Text: as §3

Where two headings read alike, the source gives them in different places.

`O=S1(=O)CCN(CN2CCS(=O)(=O)NC2)CN1` [Taurolidine, Bis-(1,1-dioxoperhydro-1,2,4-thiadiazinyl-4)methane]: the “increase in Annexin-V binding” value with NIH-3T3 cells is recorded as roughly 5%. Besides, the IC50 in the data set on H-596 lung tumor cells is 34.2 µM; in the data set with H-596 lung tumor cells (Homo sapiens, NCI-H596, 72 h) it was roughly 35 µM; with HCT-8 colon tumor cells it was 11.5 ± 0.5 µM; in the data set with HCT-8 colon tumor cells (Homo sapiens, HCT-8, 72 h), roughly 10 µM; in the data set with HCT-15 colon tumor cells it was 9.6 ± 3 µM; in the data set on HCT-15 colon tumor cells (Homo sapiens, HCT-15, 72 h) it was roughly 10 µM. The IC50 in data set [1] was 9.8 ± 0.8 µM; in data set [1] (Homo sapiens, DU-145, 72 h) it was roughly 10 µM; in the data set on H-157 lung tumor cells, 32.2 ± 5.6 µM; in data set [2] (Homo sapiens, 72 h), roughly 10 µM; in data set [2], 11.4 ± 1.8 µM; with MNT-1 melanoma cells it was 22.1 ± 2.1 µM. The DNA fragmentation result is recorded as “not apparent” with 3T3 cells and “overt DNA fragmentation” in the data set with ovarian tumor cells. In addition, the cytotoxicity result in data set [3] and in data set [4] (normal murine bone marrow cultures) was “not cytotoxic in the high μM range” each time. Further, in data set [4] (normal murine bone marrow), the “concentrations required to inhibit cell proliferation” value is “mM range”.
